In patent publication US20190388320A1, “METHOD OF STRENGTHENING HAIR” (Conopco, Inc. d/b/a UNILEVER, priority 2017, published 2019):

Assay: Denaturation temperature Td of treated hair fibres by DSC
Conditions: soaked for 30 minutes in 2% aqueous solution; for Average Td (n = 3): denaturation temperature by DSC, hair switches washed, left to dry; for Change in Td of the treated fibres: in words, relative to Control (water)
Procedure: Virgin dark brown European hair switches of length 25 cm and weight 2 gms, were treated as follows: • Control: After initial washing, soaked for 30 minutes in water • Example 1: After initial washing, soaked for 30 minutes in a 2% aqueous solution of N-α-acetyl-L-lysine • Example A: After initial washing, soaked for 30 minutes in a 2% aqueous solution of L-lysine • Example B: After initial washing, soaked for 30 minutes in a 2% aqueous solution of N-α-acetyl-L-arginine
At the end of the soaking period the switches were left to dry and clippings from a few fibres were used to measure denaturation temperature Td using DSC.

| Compound | Average Td (n = 3) | Change in Td of the treated fibres |
| --- | --- | --- |
| CC(=O)N[C@@H](CCCCN)C(=O)O [Example 1, N-α-acetyl-L-lysine] | 153.4 | substantial and significant increase in Td |
| NCCCC[C@H](N)C(=O)O [Example A, L-lysine] | 148.1 | decrease Td |
| CC(=O)N[C@@H](CCCNC(=N)N)C(=O)O [Example B, N-α-acetyl-L-arginine] | 148.2 | decrease Td |
